Data from patent US11969470B2, “Topiramate compositions and methods of making and using the same” (Regents of the University of Minnesota, priority 2006, dated 2024).

What was measured:
[1] = Open labeled single dose intravenous [13C]6-TPM/CAPTISOL study in adult patients on maintenance oral topiramate (pharmacokinetics and safety); type: in vivo, human; conditions: for BP changes / EKG changes / Injection site irritation / Other adverse events / Pulse changes / Bioavailability (fraction of oral dose absorbed, AUCoral vs AUCiso) / Clearance / Distribution volume / Half life: IV dose 25 mg
Experimental: This was an open labeled, single dose study in adult patients on a maintenance dose of topiramate for treatment of either migraines or epilepsy.
Patients were instructed to take their evening topiramate dose the day before the study, then fast until after administration of study drug. On the day of the study, subjects were admitted to University of Minnesota General Clinical Research Center where a neurologist performed a brief physical and neurological exam, vital signs were recorded, an ECG strip was obtained, indwelling catheters were placed in the left and right forearms, and blood samples were drawn for baseline laboratory tests.
A baseline assessment of topiramate toxicity was performed using the following criteria: ataxia and nystagmus: 0=none, 1=mild, 2=severe. As used herein, “ataxia” is classified as “mild”—for unsteady with tandem gait testing, but able to perform without assistance, or as “severe”—unable to perform tandem gait testing without assistance
The [^13C]6-TPM was administered into the right arm catheter, while blood samples for laboratory tests were drawn from the left arm. Laboratory chemistries included albumin, blood chemistries, kidney and liver function test, and genotyping for drug disposition. A 25 mg [^13C]6-TPM dose was then infused over 10-20 minutes. The exact dose administered was determined gravimetrically from the pre- and post-dose syringe weights. At the end of the infusion, patients took their prescribed oral morning dose; thereafter they resumed their regular dosing regimen. Blood samples for pharmacokinetic analysis were taken at 0, 5 minutes, 15 minutes, 30 minutes, 1 hour, 2 hours, 4 hours, 6 hours, 10 hours, 24 hours, 48 hours, 72 hours and 96 hours after intravenous administration of the topiramate. Urine was collected from 0-24 hours for analysis of the parent drug to determine renal clearance. Urine volumes were measured and 15 mL aliquots were stored at −80° C. until analysis.
Topiramate was detected using a LC/MS method employing the electrospray ionization (ESI) and negative scan mode. This method is designed to measure both unlabeled topiramate and the stable-isotope topiramate using a negative ESI and SIM mode of liquid chromatograph mass spectrometer. The analytes were separated using ZORBAX® LC8/LC18 and a mobile phase consisting of ammonium acetate buffer and methanol. The data generated using CHEMSTATION® software (Agilent) and quantified using deuterated topiramate (“TPM-d12”, internal standard). Patient samples were run along with a 7-concentration standard curve (run in triplicate) and nine quality control samples (low, med and high also run in triplicates), analyzed in human plasma using liquid extraction with methyl-tert-butylether and negative ion electrospray mass spectrometry. The quantitative analysis was performed using selective ion monitoring mode for topiramate at m/z=338 and m/z=350 for TPM-d12 in the negative mode. The unlabeled topiramate calibration curve ranged from 0.05 μg/mL to 10 μg/mL.
Both stable-isotope topiramate and non-labeled topiramate concentration-time data was analyzed by non-compartmental methods to obtain AUC, clearance, half-life, and volume of distribution data. The AUC was determined by the trapezoidal rule and the terminal half-life was determined by linear regression of the terminal phase on log concentration vs. time plots. WINNONLIN® (Tripos L.L.P.), a pharmacokinetic data analysis package was used to fit the data to standard pharmacokinetic models (one and two-compartment models).
Elimination rate constant (kel): kel was determined by the best fit of the post-infusion isotope concentration-time data.
AUCiso=AUC0-96 hrs+Cp96 hrs/kel
Distribution Volume at Steady State (Vdss): Vdss was determined as follows: Vdss=Doseiso*AUMC/AUC where AUMC is the area under the first moment curve, and calculated by determining the area under the curve of a plot of the product of concentration and time versus time from zero time to infinity. […]

[2] = cited from earlier work
AMPA-kainate receptor = conditions: developing oligodendrocytes; similar to NBQX; cited from earlier work
[3] = tested on: hypoxic-ischemic white matter injury; conditions: administration post-insult in vivo; cited from earlier work
[4] = Topiramate phase solubility study with the cyclodextrin CAPTISOL
Experimental: A phase solubility study was conducted with the cyclodextrin CAPTISOL® and topiramate to evaluate the extent of solubilization of the drug by the derivatized cyclodextrin.
Solutions containing increasing amounts of dissolved CAPTISOL® brand of sulfobutylether-β-cyclodextrin were prepared and added to small glass vials. Excess solid topiramate was added to each vial and the vials were capped, vortexed and placed in constant agitation for five days at room temperature (about 23° C. to about 25° C.).
After the multi-day equilibration period, the vials were centrifuged (twice at 693×g, 25° C.) and aliquots were taken from the clear supernatant solutions. The aliquots were diluted 1:3 (1:5.67 for 40% cyclodextrin CAPTISOL® solutions) with mobile phase and analyzed by HPLC for topiramate content.
• HPLC: Dionex • Detection: Refractive Index Detector • Column: SB-Phenyl (5 μm) 250 mm×4.6 mm • Column Temperature: 35° C. • Mobile Phase: 40:60 (MeOH:Water) • Flow Rate: 1.0 mL/min isocratic • Run Time: 30 minutes • Sample Solvent: Mobile phase • Injection Volume: 50 μL • Retention Time: ˜12.5 minutes Mobile Phase Preparation

[5] = cited from earlier work; remark: listed apart in the source
[6] = administered parenterally, orally and via inhalation; compared with β-cyclodextrin; cited from earlier work
[7] = adult patients, summary of three subjects
[8] = subject TUMN1, oral dose 50 mg b.i.d.
[9] = subject TUMN2, oral dose 100 mg q.d.
[10] = subject TUMN3, oral dose 25 mg b.i.d.

Q: What does the source list for CC1(C)O[C@@H]2[C@@H](CO[C@@]3(COS(N)(=O)=O)OC(C)(C)O[C@@H]23)O1 [Topiramate, 2,3:4,5-di-O-isopropylidene-β-D-fructopyranose sulfamate]?
A: distribution volume for intravenously administered topiramate [1, 7]: approximately 0.7 L/kg; oral absorption [1, 7]: approximately 100%; BP changes ([1]; subject TUMN1): None; EKG changes ([1]; subject TUMN1): None; Injection site irritation ([1]; subject TUMN1): None; Other adverse events ([1]; subject TUMN1): None; Pulse changes ([1]; subject TUMN1): None; Bioavailability (fraction of oral dose absorbed, AUCoral vs AUCiso) [1, 8]: 102%; Clearance [1, 8]: 1.01 L/h; Distribution volume [1, 8]: 0.78 L/kg; Half life [1, 8]: 30.5 h; BP changes ([1]; subject TUMN2): None; EKG changes ([1]; subject TUMN2): None; Injection site irritation ([1]; subject TUMN2): None; Other adverse events ([1]; subject TUMN2): None; Pulse changes ([1]; subject TUMN2): None; Bioavailability (fraction of oral dose absorbed, AUCoral vs AUCiso) [1, 9]: 106%; Clearance [1, 9]: 1.07 L/h; Distribution volume [1, 9]: 0.68 L/kg; Half life [1, 9]: 28.4 h; BP changes ([1]; subject TUMN3): None; EKG changes ([1]; subject TUMN3): None; Injection site irritation ([1]; subject TUMN3): None; Pulse changes ([1]; subject TUMN3): None; Other adverse events ([1]; subject TUMN3, cell wraps: Vasovagal response during IV line placement): Vasovagal; Bioavailability (fraction of oral dose absorbed, AUCoral vs AUCiso) [1, 10]: 109%; Clearance [1, 10]: 1.11 L/h; Distribution volume [1, 10]: 0.70 L/kg; Half life [1, 10]: 38.0 h; bioavailability of an oral topiramate dose ([2]; oral administration, previously found): about 80%; oral dose excreted in the urine as unchanged drug ([2]; oral administration): about 70%; higher clearance in pediatric patients compared to adults ([2]; pediatric patients vs adults): 50%; effect on AMPA-kainate receptor-mediated cell death and calcium influx, kainate-evoked currents (AMPA-kainate receptor): attenuates; effect on selective hypoxic-ischemic white matter injury [3]: protective against selective hypoxic-ischemic white matter injury; intrinsic solubility ([4]; in water in the absence of cyclodextrin, room temperature): 7860 µg/mL; phase solubility type ([4]; topiramate in CAPTISOL solutions in water): Type A-linear

Q: For “sulfobutylether-β-cyclodextrin [CAPTISOL®]”, which water solubility [5] is on record?
A: The water solubility was > 90 g per 100 mL.

Q: What about the nephrotoxicity [6] of the same molecule?
A: The nephrotoxicity was “does not exhibit the nephrotoxicity associated with β-cyclodextrin”.
